Measured values reported in US20120220548A1, “Compositions and methods for treatment of virus-associated cancer cells” (priority 2011, published 2012).

Experiments:
[1] = tested on: BCBL-1 primary effusion lymphoma (PEL) cells; assay: rapamycin cell killing of BCBL-1 PEL cells in culture with or without oHA (relative cell viability); type: cell-based, human
Protocol: The cells used are the PEL strain known as body cavity-based lymphoma-1 (BCBL-l; diamonds and squares). The squares indicate data from cells to which oHA was added along with rapamycin.
Cell viability was assessed using both MTT and Trypan blue exclusion assays as described in Qin Z, et al. PLoS Pathog 2010; 6(1): e1000742. For MTT assays, a total of 5×10^3 PEL cells were incubated individual wells of a 96-well plate for 24 hours. Serial dilutions of paclitaxel, doxorubicin or oHAs were added and subsequently incubated in 1 mg/ml MTT solution (Sigma-Aldrich) at 37° C. for 3 hours. Thereafter, cells were incubated in 50% dimethylsulfoxide overnight and optical densities determined at 570 nm using a spectrophotometer (Thermo Labsystems, West Palm Beach, Fla., USA). For Trypan blue exclusion assays, cells were incubated with 0.4% Trypan blue (MP Biomedicals, Northbrook, Ill., USA) and observed under light microscopy. Relative cell viability was determined after assessment of at least 1000 cells per condition for each experiment using the following formula: (no. of live cells/no. of total cells for experimental conditions)/ (no. of live cells/no. of total cells for vehicle-treated control cells). […]

BCBL-1 cells = details: 3 weeks
Protocol: Mice were injected with 2×10^7 BCBL-1 cells and were weighed as a function of time every week for 3 weeks, to assess tumor growth. […] The weight is shown on the ordinate and time in days on the abscissa.
Mice were injected with 2×10^7 BCBL-1 cells (a strain of PEL cells) and were weighed as a function of time every week for three weeks, to assess tumor growth. Weight was compared to control mice not receiving BCBL-1 cells.

[2] = doxorubicin 0.2 mg/kg intraperitoneally

SMILES | survival (relative cell viability) ([1]; 1 nM rapamycin, this agent alone) | IC50 ([1]; Homo sapiens, BCBL1, read-out: concentration of rapamycin giving cell death of about half the cells, rapamycin alone) | effect on progress of lymphoma (weight gain) (BCBL-1 cells; doxorubicin 0.2 mg/kg i.p., oHA 0.5 mg/kg i.p.) | tumor-associated weight gain (BCBL-1 cells; [2]) | tumor-associated weight gain from baseline weight of 25-28g (BCBL-1 cells; [2])
CO[C@H]1C[C@@H]2CC[C@@H](C)[C@@](O)(O2)C(=O)C(=O)N2CCCC[C@H]2C(=O)O[C@H]([C@H](C)C[C@@H]2CC[C@@H](O)[C@H](OC)C2)CC(=O)[C@H](C)/C=C(\C)[C@@H](O)[C@@H](OC)C(=O)[C@H](C)C[C@H](C)/C=C/C=C/C=C/1C [rapamycin] | greater than 0.95 | 10 to 20 nM |  |  | 
COc1cccc2c1C(=O)c1c(O)c3c(c(O)c1C2=O)C[C@@](O)(C(=O)CO)C[C@@H]3O[C@H]1C[C@H](N)[C@H](O)[C@H](C)O1 [doxorubicin] |  |  | only slightly reduced the increase in weight | 4 to 7 g | approximately 35%
